The values that follow come from US8802673B2, “Heterocyclic amine derivatives” (Hoffmann-La Roche Inc, priority 2011, dated 2014).

Sequence of rat TAAR1 (Q923Y9 whole entry): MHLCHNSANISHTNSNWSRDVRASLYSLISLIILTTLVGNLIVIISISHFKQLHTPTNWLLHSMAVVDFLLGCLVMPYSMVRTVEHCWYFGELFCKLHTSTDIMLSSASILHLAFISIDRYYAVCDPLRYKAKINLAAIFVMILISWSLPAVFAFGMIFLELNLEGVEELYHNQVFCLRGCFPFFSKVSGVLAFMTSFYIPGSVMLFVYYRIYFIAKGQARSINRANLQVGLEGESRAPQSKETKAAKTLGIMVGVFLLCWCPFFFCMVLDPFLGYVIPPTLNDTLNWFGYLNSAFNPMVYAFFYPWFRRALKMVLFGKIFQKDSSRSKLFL

In one test the target is mouse TAAR1 (Mus musculus (Mouse), UniProt Q923Y8). Briefly: Radioligand binding assay on mouse TAAR1. The following applies: mouse TAAR1 (first value of the cell), HEK-293 membranes; read-out: Ki (μM) mouse/rat. As to the method: (§1) Construction of TAAR Expression Plasmids and Stably Transfected Cell Lines
Sequence of mouse TAAR1 (Q923Y8 whole entry): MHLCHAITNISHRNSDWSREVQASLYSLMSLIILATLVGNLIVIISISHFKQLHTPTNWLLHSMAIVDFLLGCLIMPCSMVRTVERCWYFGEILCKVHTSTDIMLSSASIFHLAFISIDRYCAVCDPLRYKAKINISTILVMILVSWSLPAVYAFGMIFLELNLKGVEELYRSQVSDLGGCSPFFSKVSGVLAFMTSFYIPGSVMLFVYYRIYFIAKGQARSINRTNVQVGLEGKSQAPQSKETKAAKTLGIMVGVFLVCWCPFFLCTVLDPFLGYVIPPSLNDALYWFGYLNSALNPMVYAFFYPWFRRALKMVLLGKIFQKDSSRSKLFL
(§2) For the construction of expression plasmids the coding sequences of human, rat and mouse TAAR 1 were amplified from genomic DNA essentially as described by Lindemann et al.. The Expand High Fidelity PCR System (Roche Diagnostics) was used with 1.5 mM Mg^2+ and purified PCR products were cloned into pCR2.1-TOPO cloning vector (Invitrogen) following the instructions of the manufacturer. PCR products were subcloned into the pIRESneo2 vector (BD Clontech, Palo Alto, Calif.), and expression vectors were sequence verified before introduction in cell lines.
(§3) HEK293 cells (ATCC #CRL-1573) were cultured essentially as described by Lindemann et al. (2005). For the generation of stably transfected cell lines HEK293 cells were transfected with the pIRESneo2 expression plasmids containing the TAAR coding sequences (described above) with Lipofectamine 2000 (Invitrogen) according to the instructions of the manufacturer, and 24 hrs post transfection the culture medium was supplemented with 1 mg/ml G418 (Sigma, Buchs, Switzerland). After a culture period of about 10 d clones were isolated, expanded and tested for responsiveness to trace amines (all compounds purchased from Sigma) with the cAMP Biotrak Enzyme immunoassay (EIA) System (Amersham) following the non-acetylation EIA procedure provided by the manufacturer.
Radioligand Binding Assay on Mouse TAAR1
Membrane Preparation and Radioligand Binding.
(§4) HEK-293 cells stably expressing mouse TAAR1 were maintained at 37° C. and 5% CO2 in DMEM high glucose medium, containing fetal calf serum (10%, heat inactivated for 30 min at 56° C.), penicillin/streptomycin (1%), and 375 μg/ml geneticin (Gibco). Cells were released from culture flasks using trypsin/EDTA, harvested, washed twice with ice-cold PBS (without Ca^2+ and Mg^2+), pelleted at 1,000 rpm for 5 min at 4° C., frozen and stored at −80° C. Frozen pellets were suspended in 20 ml HEPES-NaOH (20 mM, pH 7.4) containing 10 mM EDTA and homogenized with a Polytron (PT 6000, Kinematica) at 14,000 rpm for 20 s. The homogenate was centrifuged at 48,000×g for 30 min at 4° C. Subsequently, the supernatant was removed and discarded, and the pellet resuspended in 20 ml HEPES-NaOH (20 mM, pH 7.4) containing 0.1 mM EDTA using the Polytron (20 s at 14,000 rpm). This procedure was repeated and the final pellet resuspended in HEPES-NaOH containing 0.1 mM EDTA and homogenized using the Polytron. Typically, aliquots of 2 ml membrane portions were stored at −80° C. With each new membrane batch the dissociation constant (Kd) was determined via a saturation curve. […] All compounds were tested at a broad range of concentrations (10 pM to 10 μM) in duplicates. […] The 96 deep well plates were incubated for 1 hr at 4° C. Incubations were terminated by rapid filtration through Unifilter-96 plates (Packard Instrument Company) and glass filters GF/C (Perkin Elmer) presoaked for 1 hr in polyethylenimine (0.3%) and washed 3 times with 1 ml of cold binding buffer. After addition of 45 μl of Microscint 40 (PerkinElmer) the Unifilter-96 plate was sealed and after 1 hr the ratioactivity counted using a TopCount Microplate Scintillation Counter (Packard Instrument Company).
With `Clc1ccc(Nc2ccc(C3CNCCO3)cn2)nc1` (racemic) [Example 90, (RS)-5-Chloro-N-(5-(morpholin-2-yl)pyridin-2-yl)pyridin-2-amine], the Ki was found to be 0.0196 µM.
Still for that read-out and setting: then `c1nc(Nc2ccc(C3CNCCO3)cn2)ncc1C1CC1` (racemic) [Example 92, (RS)-5-Cyclopropyl-N-(5-(morpholin-2-yl)pyridin-2-yl)pyrimidin-2-amine], with 0.0229 µM.
Same read-out and setting: for `Fc1cc(C2CNCCO2)ccc1Nc1ncc(Cl)cn1` (racemic) [Example 96, (RS)-5-Chloro-N-(2-fluoro-4-(morpholin-2-yl)phenyl)pyrimidin-2-amine] the value was 0.0062 µM; for `CCc1cnc(Nc2ccc(C3CNCCO3)cc2F)nc1` (racemic) [Example 97, (RS)-5-Ethyl-N-(2-fluoro-4-(morpholin-2-yl)phenyl)pyrimidin-2-amine], 0.0029 µM.
The same measure, in the same setting: for `CCOc1cnc(Nc2ccc(C3CNCCO3)cc2F)nc1` (racemic) [Example 100, (RS)-(5-Ethoxy-pyrimidin-2-yl)-(2-fluoro-4-morpholin-2-yl-phenyl)-amine] the value was 0.0053 µM; for `CCCc1cnc(Nc2ccc(C3CNCCO3)cc2F)nc1` (racemic) [Example 101, (RS)-(2-Fluoro-4-morpholin-2-yl-phenyl)-(5-propyl-pyrimidin-2-yl)-amine], 0.0032 µM; for `Cc1cc(C2CNCCO2)cnc1Nc1ccc(Br)cn1` (racemic) [Example 120, (RS)—N-(5-Bromopyridin-2-yl)-3-methyl-5-(morpholin-2-yl)pyridin-2-amine], 0.0058 µM.
Consider `Fc1cc(C2CNCCO2)ccc1Nc1ncc(C(F)(F)F)cn1` (racemic) [Example 121, (RS)-(2-Fluoro-4-morpholin-2-yl-phenyl)-(5-trifluoromethyl-pyrimidin-2-yl)-amine], for which the Ki is 0.0058 µM.
Still for that read-out and setting: for `Cn1ccc(Nc2ccc(C3CNCCO3)cc2)n1` (racemic) [Example 140, (RS)-(1-Methyl-1H-pyrazol-3-yl)-(4-morpholin-2-yl-phenyl)-amine] the value was 0.0386 µM; for `Cn1cc(Br)c(Nc2ccc(C3CNCCO3)cc2)n1` (racemic) [Example 143, (RS)-(4-Bromo-1-methyl-1H-pyrazol-3-yl)-(4-morpholin-2-yl-phenyl)-amine], 0.418 µM.
Regarding `c1cc(C2CNCCO2)ccc1Nc1ccn(CC2CC2)n1` (racemic) [Example 146, (RS)-(1-Cyclopropylmethyl-1H-pyrazol-3-yl)-(4-morpholin-2-yl-phenyl)-amine], the Ki turned out to be 0.0046 µM.
As to `FC(F)Cn1ccc(Nc2ccc(C3CNCCO3)cc2)n1` (racemic) [Example 150, (RS)-[1-(2,2-Difluoro-ethyl)-1H-pyrazol-3-yl]-(4-morpholin-2-yl-phenyl)-amine], the Ki was determined as 0.0134 µM.
Regarding `Brc1ccc(Nc2ccc([C@H]3CNCCO3)cc2)nc1` [Example 10, (S)-5-Bromo-N-(4-(morpholin-2-yl)phenyl)pyridin-2-amine], the Ki worked out at 0.0015 µM.
The same measure, in the same setting: then `FC(F)(F)c1ccc(Nc2ccc([C@H]3CNCCO3)cc2)nc1` [Example 11, (S)—N-(4-(Morpholin-2-yl)phenyl)-5-(trifluoromethyl)pyridin-2-amine], with 0.0015 µM; and `COc1cnc(Nc2ccc([C@H]3CNCCO3)cc2)nc1` [Example 12, (5-Methoxy-pyrimidin-2-yl)-((S)-4-morpholin-2-yl-phenyl)-amine], with 0.0055 µM; and `c1ccc(CCNc2ccc([C@H]3CNCCO3)cc2)cc1` [Example 13, ((S)-4-Morpholin-2-yl-phenyl)-phenethyl-amine], with 0.0266 µM.
For the compound `Fc1cnc(Nc2ccc([C@H]3CNCCO3)cc2)nc1` [Example 14, (5-Fluoro-pyrimidin-2-yl)-((S)-4-morpholin-2-yl-phenyl)-amine], the Ki was 0.0122 µM.
On to `CCc1cnc(Nc2ccc([C@H]3CNCCO3)cc2)nc1` [Example 15, (5-Ethyl-pyrimidin-2-yl)-((S)-4-morpholin-2-yl-phenyl)-amine], for which the Ki was 0.0028 µM.
For `N#Cc1cnc(Nc2ccc([C@H]3CNCCO3)cc2)nc1` [Example 16, 2-((S)-4-Morpholin-2-yl-phenylamino)-pyrimidine-5-carbonitrile], the Ki came out at 0.0276 µM.
`c1cc([C@H]2CNCCO2)ccc1Nc1ncc(C2CC2)cn1` [Example 17, (5-Cyclopropyl-pyrimidin-2-yl)-((S)-4-morpholin-2-yl-phenyl)-amine]: the Ki was 0.0017 µM.
Same read-out and setting: then `Cc1cnc(Nc2ccc([C@H]3CNCCO3)cc2)nc1` [Example 18, (5-Methyl-pyrimidin-2-yl)-((S)-4-morpholin-2-yl-phenyl)-amine], with 0.0054 µM; and `FC(F)(F)c1cnc(Nc2ccc([C@H]3CNCCO3)cc2)nc1` [Example 19, ((S)-4-Morpholin-2-yl-phenyl)-(5-trifluoromethyl-pyrimidin-2-yl)-amine], with 0.0056 µM.
Regarding `COc1ccc(CNc2ccc([C@H]3CNCCO3)cc2)cc1` [Example 20, (4-Methoxy-benzyl)-((S)-4-morpholin-2-yl-phenyl)-amine], the Ki was determined as 0.0453 µM.
Same read-out and setting: for `CCCc1cnc(Nc2ccc([C@H]3CNCCO3)cc2)nc1` [Example 21, ((S)-4-Morpholin-2-yl-phenyl)-(5-propyl-pyrimidin-2-yl)-amine] the value was 0.002 µM; for `Cc1ccc(CNc2ccc([C@H]3CNCCO3)cc2)cc1` [Example 22, (4-Methyl-benzyl)-((S)-4-morpholin-2-yl-phenyl)-amine], 0.0375 µM; for `N#Cc1ccc(CNc2ccc([C@H]3CNCCO3)cc2)cc1` [Example 23, 4-[((S)-4-Morpholin-2-yl-phenylamino)-methyl]-benzonitrile], 0.0514 µM.

Another test deals with rat TAAR1 (Rattus norvegicus (Rat), UniProt Q923Y9). The test is described as follows: Radioligand binding assay on rat TAAR1. The conditions noted are these: rat TAAR1 (second value of the cell), HEK-293 membranes; read-out: Ki (μM) mouse/rat. As to the method:
as §1, §2, §3
Radioligand Binding Assay on Rat TAAR1
Membrane Preparation and Radioligand Binding
as §4, with “rat” for “mouse”
Consider `Clc1ccc(Nc2ccc(C3CNCCO3)cn2)nc1` (racemic) [Example 90, (RS)-5-Chloro-N-(5-(morpholin-2-yl)pyridin-2-yl)pyridin-2-amine], for which the Ki stood at 0.232 µM.
The same measure, in the same setting: for `c1nc(Nc2ccc(C3CNCCO3)cn2)ncc1C1CC1` (racemic) [Example 92, (RS)-5-Cyclopropyl-N-(5-(morpholin-2-yl)pyridin-2-yl)pyrimidin-2-amine] the value was 0.275 µM; for `Fc1cc(C2CNCCO2)ccc1Nc1ncc(Cl)cn1` (racemic) [Example 96, (RS)-5-Chloro-N-(2-fluoro-4-(morpholin-2-yl)phenyl)pyrimidin-2-amine], 0.0216 µM; for `CCc1cnc(Nc2ccc(C3CNCCO3)cc2F)nc1` (racemic) [Example 97, (RS)-5-Ethyl-N-(2-fluoro-4-(morpholin-2-yl)phenyl)pyrimidin-2-amine], 0.0056 µM.
Same read-out and setting: for `CCOc1cnc(Nc2ccc(C3CNCCO3)cc2F)nc1` (racemic) [Example 100, (RS)-(5-Ethoxy-pyrimidin-2-yl)-(2-fluoro-4-morpholin-2-yl-phenyl)-amine] the value was 0.0164 µM.
Still for that read-out and setting: for `CCCc1cnc(Nc2ccc(C3CNCCO3)cc2F)nc1` (racemic) [Example 101, (RS)-(2-Fluoro-4-morpholin-2-yl-phenyl)-(5-propyl-pyrimidin-2-yl)-amine] the value was 0.0041 µM; for `Cc1cc(C2CNCCO2)cnc1Nc1ccc(Br)cn1` (racemic) [Example 120, (RS)—N-(5-Bromopyridin-2-yl)-3-methyl-5-(morpholin-2-yl)pyridin-2-amine], 0.0364 µM; for `Fc1cc(C2CNCCO2)ccc1Nc1ncc(C(F)(F)F)cn1` (racemic) [Example 121, (RS)-(2-Fluoro-4-morpholin-2-yl-phenyl)-(5-trifluoromethyl-pyrimidin-2-yl)-amine], 0.0096 µM.
Turning to `Cn1ccc(Nc2ccc(C3CNCCO3)cc2)n1` (racemic) [Example 140, (RS)-(1-Methyl-1H-pyrazol-3-yl)-(4-morpholin-2-yl-phenyl)-amine], the Ki amounted to 5.25 µM.
On the same count and under the same terms, for `Cn1cc(Br)c(Nc2ccc(C3CNCCO3)cc2)n1` (racemic) [Example 143, (RS)-(4-Bromo-1-methyl-1H-pyrazol-3-yl)-(4-morpholin-2-yl-phenyl)-amine] the value was 0.284 µM; for `c1cc(C2CNCCO2)ccc1Nc1ccn(CC2CC2)n1` (racemic) [Example 146, (RS)-(1-Cyclopropylmethyl-1H-pyrazol-3-yl)-(4-morpholin-2-yl-phenyl)-amine], 0.14 µM; for `FC(F)Cn1ccc(Nc2ccc(C3CNCCO3)cc2)n1` (racemic) [Example 150, (RS)-[1-(2,2-Difluoro-ethyl)-1H-pyrazol-3-yl]-(4-morpholin-2-yl-phenyl)-amine], 0.149 µM.
For the compound `Brc1ccc(Nc2ccc([C@H]3CNCCO3)cc2)nc1` [Example 10, (S)-5-Bromo-N-(4-(morpholin-2-yl)phenyl)pyridin-2-amine], the Ki came to 0.0337 µM.
In the case of `FC(F)(F)c1ccc(Nc2ccc([C@H]3CNCCO3)cc2)nc1` [Example 11, (S)—N-(4-(Morpholin-2-yl)phenyl)-5-(trifluoromethyl)pyridin-2-amine], the Ki was determined as 0.0233 µM.
Still for that read-out and setting: for `COc1cnc(Nc2ccc([C@H]3CNCCO3)cc2)nc1` [Example 12, (5-Methoxy-pyrimidin-2-yl)-((S)-4-morpholin-2-yl-phenyl)-amine] the value was 0.259 µM; for `c1ccc(CCNc2ccc([C@H]3CNCCO3)cc2)cc1` [Example 13, ((S)-4-Morpholin-2-yl-phenyl)-phenethyl-amine], 0.108 µM.
Same read-out and setting: then `Fc1cnc(Nc2ccc([C@H]3CNCCO3)cc2)nc1` [Example 14, (5-Fluoro-pyrimidin-2-yl)-((S)-4-morpholin-2-yl-phenyl)-amine], with 0.504 µM.
For `CCc1cnc(Nc2ccc([C@H]3CNCCO3)cc2)nc1` [Example 15, (5-Ethyl-pyrimidin-2-yl)-((S)-4-morpholin-2-yl-phenyl)-amine], the Ki is 0.0466 µM.
Consider `N#Cc1cnc(Nc2ccc([C@H]3CNCCO3)cc2)nc1` [Example 16, 2-((S)-4-Morpholin-2-yl-phenylamino)-pyrimidine-5-carbonitrile], for which the Ki worked out at 0.448 µM.
As to `c1cc([C@H]2CNCCO2)ccc1Nc1ncc(C2CC2)cn1` [Example 17, (5-Cyclopropyl-pyrimidin-2-yl)-((S)-4-morpholin-2-yl-phenyl)-amine], the Ki came to 0.0131 µM.
On the same count and under the same terms, for `Cc1cnc(Nc2ccc([C@H]3CNCCO3)cc2)nc1` [Example 18, (5-Methyl-pyrimidin-2-yl)-((S)-4-morpholin-2-yl-phenyl)-amine] the value was 0.313 µM; for `FC(F)(F)c1cnc(Nc2ccc([C@H]3CNCCO3)cc2)nc1` [Example 19, ((S)-4-Morpholin-2-yl-phenyl)-(5-trifluoromethyl-pyrimidin-2-yl)-amine], 0.0236 µM; for `COc1ccc(CNc2ccc([C@H]3CNCCO3)cc2)cc1` [Example 20, (4-Methoxy-benzyl)-((S)-4-morpholin-2-yl-phenyl)-amine], 0.764 µM.
Still for that read-out and setting: then `CCCc1cnc(Nc2ccc([C@H]3CNCCO3)cc2)nc1` [Example 21, ((S)-4-Morpholin-2-yl-phenyl)-(5-propyl-pyrimidin-2-yl)-amine], with 0.0245 µM.
Still for that read-out and setting: then `Cc1ccc(CNc2ccc([C@H]3CNCCO3)cc2)cc1` [Example 22, (4-Methyl-benzyl)-((S)-4-morpholin-2-yl-phenyl)-amine], with 0.468 µM; and `N#Cc1ccc(CNc2ccc([C@H]3CNCCO3)cc2)cc1` [Example 23, 4-[((S)-4-Morpholin-2-yl-phenylamino)-methyl]-benzonitrile], with 1.64 µM.
